pEC50: −log10 of the molar value.
Experiments:
human TLR8 = target: T1, human TLR8 (Homo sapiens, UniProt Q9NR97); assay: TLR8 wild type NFκB-luc cellular reporter assay; format: cell-based; set-up: unit not given here; conditions: HEK293 NFκB-luc reporter, 6 hours incubation
T1 construct: expressed in transfected cells; host or cells: HEK293
T1 sequence (Q9NR97 27-1041): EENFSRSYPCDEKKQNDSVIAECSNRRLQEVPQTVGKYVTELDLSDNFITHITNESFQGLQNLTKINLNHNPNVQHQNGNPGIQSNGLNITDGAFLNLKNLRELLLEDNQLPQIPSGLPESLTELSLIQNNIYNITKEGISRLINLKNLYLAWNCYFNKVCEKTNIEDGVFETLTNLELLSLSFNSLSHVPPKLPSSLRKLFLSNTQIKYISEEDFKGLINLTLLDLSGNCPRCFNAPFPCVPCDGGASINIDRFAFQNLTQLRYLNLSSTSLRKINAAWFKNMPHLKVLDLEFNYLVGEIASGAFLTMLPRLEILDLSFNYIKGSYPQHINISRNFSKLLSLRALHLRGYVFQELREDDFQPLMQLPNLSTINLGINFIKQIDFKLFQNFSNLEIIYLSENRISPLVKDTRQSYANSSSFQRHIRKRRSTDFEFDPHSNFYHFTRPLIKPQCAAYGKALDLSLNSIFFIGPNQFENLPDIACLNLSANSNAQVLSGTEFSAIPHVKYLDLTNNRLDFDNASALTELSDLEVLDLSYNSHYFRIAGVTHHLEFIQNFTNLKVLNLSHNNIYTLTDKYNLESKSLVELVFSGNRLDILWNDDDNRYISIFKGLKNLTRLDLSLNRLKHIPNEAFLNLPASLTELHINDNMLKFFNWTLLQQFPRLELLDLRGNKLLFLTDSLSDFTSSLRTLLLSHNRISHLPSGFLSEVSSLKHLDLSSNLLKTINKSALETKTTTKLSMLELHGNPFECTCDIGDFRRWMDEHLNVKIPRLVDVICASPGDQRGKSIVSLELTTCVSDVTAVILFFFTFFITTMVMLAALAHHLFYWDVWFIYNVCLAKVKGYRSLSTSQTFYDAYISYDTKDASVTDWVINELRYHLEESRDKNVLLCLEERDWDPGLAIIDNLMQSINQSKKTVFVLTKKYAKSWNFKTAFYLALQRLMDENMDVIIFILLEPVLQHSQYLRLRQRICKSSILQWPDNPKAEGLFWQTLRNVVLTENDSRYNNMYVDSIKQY
Procedure: (§1) The ability of compounds to activate human TLR7 and/or TLR8 was assessed in a cellular reporter assay using HEK293 cells transiently transfected with a TLR7 or TLR8 expression vector and NFκB-luc reporter construct. In one instance the TLR expression construct expresses the respective wild type sequence or a mutant sequence comprising a deletion in the second leucine-rich repeat of the TLR.
(§2) Briefly, HEK293 cells were grown in culture medium (DMEM supplemented with 10% FCS and 2 mM Glutamine). For transfection of cells in 10 cm dishes, cells were detached with Trypsin-EDTA, transfected with a mix of CMV-TLR7 or TLR8 plasmid (750 ng), NFκB-luc plasmid (375 ng) and a transfection reagent and incubated 24 hours at 37° C. in a humidified 5% CO2 atmosphere. Transfected cells were then detached with Trypsin-EDTA, washed in PBS and resuspended in medium to a density of 1.67×10^5 cells/mL. Thirty microliters of cells were then dispensed into each well in 384-well plates, where 10 μL of compound in 4% DMSO was already present. Following 6 hours incubation at 37° C., 5% CO2, the luciferase activity was determined by adding 15 μl of Steady Lite Plus substrate (Perkin Elmer) to each well and readout performed on a ViewLux ultraHTS microplate imager (Perkin Elmer). Dose response curves were generated from measurements performed in quadruplicates. Lowest effective concentrations (LEC) values, defined as the concentration that induces an effect which is at least two fold above the standard deviation of the assay, were determined for each compound.

[1] = tested on: HCV replicon (Huh-7 luc/neo cells); assay: Suppression of HCV replicon replication by conditioned media from PBMC; format: cell-based, HCV type 1b; conditions: Hepatitis C virus, compound concentration applied to PBMCs giving 50% reduction of replicon luciferase activity, read-out: PBMC-HUH7_EC50
Procedure: Activation of human TLR7 results in robust production of interferon by plasmacytoid dendritic cells present in human blood. The potential of compounds to induce interferon was evaluated by looking at the antiviral activity in the HCV replicon system upon incubation with conditioned media from peripheral blood mononuclear cells (PBMC). The HCV replicon assay is based on a bicistronic expression construct, as described by Lohmann et al. (Science (1999) 285: 110-113; Journal of Virology (2003) 77: 3007-15 3019) with modifications described by Krieger et al. (Journal of Virology (2001) 75: 4614-4624). The assay utilized the stably transfected cell line Huh-7 luc/neo harboring an RNA encoding a bicistronic expression construct comprising the wild type NS3-NS5B regions of HCV type 1b translated from an Internal Ribosome Entry Site (IRES) from encephalomyocarditis virus (EMCV), preceded by a reporter gene (Firefly-luciferase) and a selectable marker gene (neoR, neomycine phosphotransferase). The construct is flanked by 5′ and 3′ NTRs (non-translated regions) from HCV type 1b. Continued culture of the replicon cells in the presence of G418 (neoR) is dependent on the replication of the HCV RNA. The stably transfected replicon cells that replicate HCV RNA autonomously and to high levels, encoding inter alia luciferase, were used for profiling of the conditioned cell culture media.
Briefly, PBMCs were prepared from buffy coats of at least two donors using a standard Ficoll centrifugation protocol. Isolated PBMCs were resuspended in RPMI medium supplemented with 10% human AB serum and 2×10^5 cells/well were dispensed into 384-well plates containing compounds (70 μL total volume). After overnight incubation, 10 μL of supernatant was transferred to 384-well plates containing 2.2×10^3 replicon cells/well in 30 μL (plated the day before). Following 24 hours of incubation, replication was measured by assaying luciferase activity using 40 μL/well Steady Lite Plus substrate (Perkin Elmer) and measured with ViewLux ultraHTS microplate imager (Perkin Elmer). The inhibitory activity of each compound on the Huh7-luc/neo cells were reported as EC50 values, defined as the compound concentration applied to the PBMCs resulting in a 50% reduction of luciferase activity which in turn indicates the degree of replication of the replicon RNA on transfer of a defined amount of PBMC culture medium. Recombinant interferon α-2a (Roferon-A) was used as a standard control compound.

[2] = tested on: human TLR7 mutant (dIRR2); assay: TLR7 mutant (deletion in second leucine-rich repeat) NFκB-luc cellular reporter assay; format: cell-based; set-up: unit not given here; conditions: HEK293 NFκB-luc reporter, mutant TLR7, 6 hours incubation
Procedure: as §1, §2

[3] = tested on: human TLR8 mutant (dIRR2); assay: TLR8 mutant (deletion in second leucine-rich repeat) NFκB-luc cellular reporter assay; format: cell-based; set-up: unit not given here; conditions: HEK293 NFκB-luc reporter, mutant TLR8, 6 hours incubation
Procedure: as §1, §2

## CC[C@H](C)[C@@H](CO)Nc1nc(N)nc2cc(OC)c(OC)cc12 [Compound 7]
Human TLR8
  TLR8-wt_LEC: 13.8
[1]
  pEC50: 4.91
[2]
  TLR7-dIRR2_LEC: 3.8
[3]
  TLR8-dIRR2_LEC: 9.0

From patent publication US8916575B2, “Quinazoline derivatives for the treatment of viral infections and further diseases” (Janssen R&D Ireland, priority 2011, dated 2014)
